According to patent publication US12551482B2, “Aurora kinase inhibitors” (The Regents of the University of California, priority 2013, dated 2026):
Entries after “also recorded” stand apart in the source; their conditions may differ.

Key:
MYCN [1] = assay: MYCN protein by western blot in SK-N-BE(2) cells; assay type: cell-based; settings: for efficacy against MYCN (loss of MYCN protein), in words: 24 hrs, 1 μM of compound (FIG. 3)
Protocol: (§1) Neuroblastoma tumor cell lines were obtained from the University of California San Francisco Cell Culture Facility (Kelly, SK-N-BE2, and SH-EP). SMS-KCN, SHEP MYCN^wt and MYCN^T58A/S62A cells were obtained. All cells were grown in RPMI with 10% FBS. Neuroblastoma cells were harvested and lysed with Cell Signaling Lysis buffer+1% SDS, sonicated and supernatants boiled in LDS sample buffer (Invitrogen). Western blots were performed as described previously (Chanthery et al., 2012), with primary antibodies to MYCN (ab24193, Abcam), Histone H3, P-Histone H3 (S10), Aurora A (Cell signaling), and GAPDH (Millipore). Western blot quantitation performed with ImageJ software.

Aurora A = biological target: T1, Aurora A (Homo sapiens, UniProt O14965, T287D); assay: In vitro kinase assay for Aurora A (32P ATP); assay type: biochemical
T1 construct: Aurora A (residues 123-390, T287D) was cloned into a pET28a plasmid; hexahistidine (PreScission Protease-cleavable) (cleaved yes); made in house; host or cells: E. coli BL-21(DE3)
T1 sequence (O14965 123-390 T287D): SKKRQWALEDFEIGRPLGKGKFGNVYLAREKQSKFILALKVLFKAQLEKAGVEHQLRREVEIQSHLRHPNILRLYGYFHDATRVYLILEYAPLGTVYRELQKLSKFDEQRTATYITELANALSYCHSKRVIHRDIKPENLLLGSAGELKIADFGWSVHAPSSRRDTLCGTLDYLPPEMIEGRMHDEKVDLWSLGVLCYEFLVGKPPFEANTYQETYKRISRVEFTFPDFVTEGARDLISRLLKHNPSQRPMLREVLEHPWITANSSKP
Protocol: Kinase assays for Aurora A were performed in 10 mM HEPES pH 7.5, 10 mM MgCl2, 0.01% Triton, 4% v/v DMSO, 5 nM kinase, and either 4 μM histone H3 or 30 μM synthetic peptide [sequence] (Elim Biopharmaceuticals, Inc). Drug concentration ranged from 2000-5 nM. Reactions were preincubated with inhibitor for ten minutes before initiation by addition of 100 μM nonradioactive ATP supplemented with ^32P ATP (1 mCi in 200 μL, Perkin-Elmer, 0.8 ρCi per reaction). Reactions were quenched at 10 min by spotting 3 μL quantity onto P81 phosphocellulose (Whatman), which were washed 5×5′ in 0.1% phosphoric acid and dried. Radioactivity was measured by phosphorimaging and recorded on a Typhoon fluorescence imager (Molecular Dynamics).

p-Histone H3 = p-Histone H3 by immunoblot in compound-treated cells (structure-activity); assay type: cell-based
Protocol: as §1

MYCN [2] = assay: MYCN levels in JM134- vs NHC532-treated cells (FIG. 10); assay type: cell-based
tumor-derived cell lines = assay: Screen of panel of tumor-derived, genetically characterized cell lines; assay type: cell-based; settings: Wilcoxon Rank Sum test
[3] = system: MYCN amplified neuroblastoma cells; assay: Cell cycle by flow cytometry; assay type: cell-based
Protocol: (§2) Neuroblastoma cells were treated for the indicated time, trypsinized, washed, stained with Dylight 800 at 0.3 μg/mL (Pierce, 46421), fixed with 1.5% PFA, and permeabilized with 100% methanol. Cells were then stained with antibodies against p-MPM2 (Millipore, 16-155), p-pan-Aurora (Cell Signaling, 2914), MYCN (Thermo, PA5-17403), rabbit IgG (Invitrogen, A10542), or mouse IgG (BioLegend, 405307). Cells were stained with DAPI at 0.3 μg/mL (Invitrogen, D21490) and analyzed on the BD LSR II flow cytometer. For cell cycle analysis, cells were stimulated with EdU for 2 hours prior to harvest, then probed using the Click-iT EdU Flow Cytometry Assay Kit (Invitrogen, C10424). Cells were stained with propidium iodide (BD, 556547) and analyzed on the BD FACSCalibur flow cytometer. Data was gated using Cytobank. For viability studies, neuroblastoma cells were plated in 96-well plates at a density of 1,000 cells/well for SHEP or 4,000 cells/well for Kelly or SK—N-BE2 cells, then incubated with indicated concentrations of drug for 72 hours at 37° C. Plates were frozen at −80° C. to induce cell lysis. CyQUANT reagent mixture (Invitrogen, C7026) was added to thawed plates, then fluorescence was measured. Alternatively, resazurin (Sigma-Aldrich, R7017) was added directly to wells following drug treatment then incubated for 4 hours at 37° C. prior to measuring fluorescence. Data was analyzed using GraphPad Prism software.

[4] = system: Kelly MYCN-amplified neuroblastoma cells; assay: Viability at 72 hrs, CyQUANT assay; assay type: cell-based; settings: FIG. 1F, read-out: cellular EC50 at 72 hrs
Protocol: as §2, with “Plates were frozen at −80° C. to induce cell lysis.” left out

MYCN-Aurora A complex = biological target: T2, MYCN-Aurora A complex (Homo sapiens, UniProt O14965); assay: Pulldown of MYCN and immunoblot for Aurora A; assay type: cell-based; settings: MYCN-amplified IMR32 cells, 4 hrs MG-132, 2 hrs drug, increasing concentrations
T2 construct: Representative immunoprecipitation of MYCN and immunoblots from MYCN-amplified IMR32 cells; endogenous in cells
T2 sequence (O14965 whole entry, one chain of several): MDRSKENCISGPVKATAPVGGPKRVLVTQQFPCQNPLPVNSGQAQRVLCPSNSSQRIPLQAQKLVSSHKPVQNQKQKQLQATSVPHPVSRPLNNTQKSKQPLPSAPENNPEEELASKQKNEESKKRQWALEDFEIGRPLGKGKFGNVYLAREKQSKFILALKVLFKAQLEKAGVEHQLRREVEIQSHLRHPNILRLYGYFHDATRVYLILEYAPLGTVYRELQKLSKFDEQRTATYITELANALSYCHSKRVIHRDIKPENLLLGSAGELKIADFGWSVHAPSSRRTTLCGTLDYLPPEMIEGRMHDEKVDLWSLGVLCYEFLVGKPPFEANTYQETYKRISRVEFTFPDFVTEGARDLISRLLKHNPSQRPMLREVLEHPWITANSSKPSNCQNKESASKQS

phospho-pan-Aurora = assay: Phospho-pan-Aurora by flow cytometry; assay type: cell-based; settings: 1 μM, 6 hrs (FIG. 6C)
Protocol: as §2

Aurora A protein = biological target: T3, Aurora A protein (Homo sapiens, UniProt O14965); assay: Dose response immunoblot for Aurora A protein in MYCN-amplified neuroblastoma cell lines; assay type: cell-based; settings: across cell lines (FIGS. 1D and 7)
T3 construct: endogenous in cells; host or cells: SK-N-BE(2), SMS-KCN, Kelly neuroblastoma cells
T3 sequence (O14965 whole entry): as the sequence (O14965 whole entry, one chain of several) above
Protocol: Neuroblastoma tumor cell lines were obtained from the University of California San Francisco Cell Culture Facility (Kelly, SK-N-BE2, and SH-EP). SMS-KCN, SHEP MYCN^wt and MYCN^T58A/S62A cells were obtained. All cells were grown in RPMI with 10% FBS. Neuroblastoma cells were harvested and lysed with Cell Signaling Lysis buffer+1% SDS, sonicated and supernatants boiled in LDS sample buffer (Invitrogen). […] Western blot quantitation performed with ImageJ software.

MYCN [5] = assay: Screen of Kelly MYCN-amplified cells, western blot for MYCN; assay type: cell-based; settings: 1 μM, 24 hrs
Protocol: as §1
(§3) To test whether this panel of 32 putative conformation-disrupting Aurora A inhibitors would destabilize MYCN, initially Kelly MYCN-amplified neuroblastoma cells were treated with candidate inhibitors and MYCN protein was measured by western blot. Phosphorylation of Histone H3, a known substrate for Aurora A and B and a marker for mitosis, was also assessed. FIGS. 1B and 5 show decreased levels of both MYCN protein and p-Histone H3 in response to several members of the screening panel (quantitated in FIG. 1).

[6] = delivered at the same dose (20 mg/kg); cited from earlier work
MYCN [7] = assay: Dose response immunoblot for MYCN in MYCN-amplified neuroblastoma cell lines (SK-N-BE(2), SMS-KCN, Kelly); assay type: cell-based; settings: multiple cell lines, 24 hrs (FIGS. 1D and 7)
Protocol: as §1

phospho-histone H3 = assay: Screen of Kelly MYCN-amplified cells, western blot for phospho-histone H3; assay type: cell-based; settings: 1 μM, 24 hrs
Protocol: as §1, §3

P-Histone H3 (S10) = assay: Dose response immunoblot for phosphorylation of Histone H3 (S10) in MYCN-amplified neuroblastoma cell lines; assay type: cell-based; settings: FIGS. 1D and 7
Protocol: as §1

MYCN [8] = assay: MYCN protein by immunoblot in SHEP cells expressing MYCN; assay type: cell-based; settings: SHEP cells expressing MYCNWT, 24 hrs, increasing concentrations (FIG. 12C)
Protocol: as §1
MYCN is believed to be sequentially phosphorylated at S62/T58 before it is targeted for degradation by ubiquitination, and only phosphorylated, ubiquitinated MYCN is protected from degradation by Aurora A (Gustafson and Weiss, 2010; Otto et al., 2009).

Q: For `Cc1cc(Nc2cc(C3CCCC3)[nH]n2)nc(Nc2ccc(NC(=O)Nc3cccc(C(F)(F)F)c3)cc2)n1` [CD15, 1-(4-((4-((5-cyclopentyl-1H-pyrazol-3-yl)amino)-6-methylpyrimidin-2-yl)amino)phenyl)-3-(3-(trifluoromethyl)phenyl)urea], which “efficacy against MYCN (loss of MYCN protein), in words” value (MYCN [1]) is on record?
A: Its value is “maintained both cell-free potency and efficacy against MYCN”.

Q: And the “potency against Aurora A (biochemical, cell-free), in words” value (Aurora A)?
A: The value was “maintained both cell-free potency and efficacy against MYCN”.

Q: For `Cc1cc(Nc2cc(C3CCCCC3)[nH]n2)nc(Nc2ccc(NC(=O)Nc3cccc(C(F)(F)F)c3)cc2)n1` [CD22, 3-[4-({4-[(5-cyclohexyl-1H-pyrazol-3-yl)amino]-6-methylpyrimidin-2-yl}amino)phenyl]-1-[3-(trifluoromethyl)phenyl]urea], which “efficacy against MYCN (loss of MYCN protein), in words” value (MYCN [1]) is on record?
A: The value was “lost both potency against Aurora A and efficacy against MYCN”.

Q: And the “potency against Aurora A (biochemical, cell-free), in words” value (Aurora A)?
A: The value was “lost both potency against Aurora A and efficacy against MYCN”.

Q: What does the source list for `Cc1cc(Nc2cc(C3CCCCC3)[nH]n2)nc(Nc2ccc(NC(=O)Nc3ccccc3)cc2)n1` [CD24, 3-[4-({4-[(5-cyclohexyl-1H-pyrazol-3-yl)amino]-6-methylpyrimidin-2-yl}amino)phenyl]-1-phenylurea]?
A: efficacy against MYCN (loss of MYCN protein), in words (MYCN [1]): lost both potency against Aurora A and efficacy against MYCN; potency against Aurora A (biochemical, cell-free), in words (Aurora A): lost both potency against Aurora A and efficacy against MYCN

Q: With `O=C(Nc1ccccc1)Nc1ccc(Nc2nccc(Nc3cc(C4CCCC4)[nH]n3)n2)cc1` [CD25, 3-[4-({4-[(5-cyclopentyl-1H-pyrazol-3-yl)amino]pyrimidin-2-yl}amino)phenyl]-1-phenylurea] as the compound, how does the “efficacy against MYCN (loss of MYCN protein), in words” value (MYCN [1]) read?
A: The value was “less effective than CD532 in driving MYCN loss”.

Q: And the “Histone H3 phosphorylation” value (p-Histone H3; SK-N-BE(2) cells, 24 hrs, 1 μM (FIG. 3D))?
A: The value was “loss of Histone H3 phosphorylation”.

Q: What about the “potency against Aurora A (biochemical, cell-free), in words” value (Aurora A) of the same compound?
A: The value was “retained potency against Aurora Kinase A activity”.

Q: For `O=C(Nc1ccc(Nc2nccc(Nc3cc(-c4ccco4)[nH]n3)n2)cc1)Nc1cccc(C(F)(F)F)c1` [JM134, 1-(4-((4-((5-(furan-2-yl)-1H-pyrazol-3-yl)amino)pyrimidin-2-yl)amino)phenyl)-3-(3-(trifluoromethyl)phenyl)urea], which “MYCN levels compared to NHC532 (CD532)” value (MYCN [2]) is on record?
A: Its value is “still decreases MYCN levels (though not as completely)”.

Q: What about the “level of p-Histone H3 compared to NHC532-treated cells” value (p-Histone H3; FIG. 10) of the same compound?
A: Its value is “higher level of p-Histone H3”.

Q: What about the “increase in biochemical IC50 against Aurora A compared to NHC532 (CD532)” value (Aurora A) of the same compound?
A: Its value is 5 fold.

Q: What about the “potency against Aurora A (biochemical, cell-free), in words” value (Aurora A) of the same compound?
A: The value was “decreased binding affinity to Aurora A”.

Q: For `Cc1sc2c(c1C)C(c1ccc(Cl)cc1)=N[C@@H](CC(=O)OC(C)(C)C)c1nnc(C)n1-2` [JQ1, reference compound], which “susceptibility of MYCN amplified vs non-amplified cell lines” value (tumor-derived cell lines) is on record?
A: The value was “significantly more susceptible to JQ1 than non-amplified lines”.

Q: What about the cell cycle effect ([3]; 24 hrs of treatment) of the same compound?
A: The cell cycle effect was “blockade of S-phase entry and accumulation of cells in G0/G1”.

Q: Which EC50 [4] does the source give for `COc1cc(Nc2ncc3c(n2)-c2ccc(Cl)cc2C(c2c(F)cccc2OC)=NC3)ccc1C(=O)O` [MLN8237] here?
A: The EC50 was 33.9 nM.

Q: And the “MYCN-Aurora A interaction” value (MYCN-Aurora A complex)?
A: The value was “partial loss of interaction; also recorded: only modestly disrupted this interaction”.

Q: What about the phospho-pan-Aurora (phospho-pan-Aurora) of the same compound?
A: Its phospho-pan-Aurora is “loss of phospho-pan-Aurora”.

Q: What about the “Aurora A protein level” value (Aurora A protein) of the same compound?
A: Its value is “upregulated or had little effect on Aurora A protein”.

Q: And the “time dependence of MYCN protein loss” value (MYCN [1]; 1 μM, time course (FIG. 12A))?
A: Its value is “similarly rapid, but much more modest decrease in levels of MYCN protein that does not change over time”.

Q: And the MYCN protein level (MYCN [5])?
A: The MYCN protein level was “much more modest effects on levels of MYCN protein”.

Q: And the AUC0-24 [6]?
A: Its AUC0-24 is 78.4 µM·h.

Q: And the cell cycle effect ([3]; 4 or 6 hrs of treatment)?
A: The cell cycle effect was “G2/M arrest”.

Q: And the “MYCN protein, dose response” value (MYCN [7])?
A: Its value is “little or no response to high concentrations; also recorded: little loss of MYCN protein even at doses 100 to 1000 times greater than their IC50 values for Aurora A”.

Q: And the “p-Histone H3 level” value (phospho-histone H3)?
A: The value was “blocked Histone H3 phosphorylation at 1 μM”.

Q: What about the “phosphorylation of Histone H3 at S10, dose response” value (P-Histone H3 (S10)) of the same compound?
A: The value was “initial increase in S10 phosphorylation at lower concentrations, followed by a sharp drop at higher concentrations”.

Q: For `Cc1cc(Nc2cc(N3CCN(C)CC3)nc(Sc3ccc(NC(=O)C4CC4)cc3)n2)n[nH]1` [VX-680], which phospho-pan-Aurora (phospho-pan-Aurora) is on record?
A: The phospho-pan-Aurora was “loss of phospho-pan-Aurora”.

Q: And the MYCN protein level (MYCN [5])?
A: The MYCN protein level was “much more modest effects on levels of MYCN protein”.

Q: What about the “wild-type MYCN protein” value (MYCN [8]) of the same compound?
A: The value was “little effect on MYCN protein levels”.

Q: And the cell cycle effect ([3]; 4 or 6 hrs of treatment)?
A: Its cell cycle effect is “G2/M arrest”.

Q: And the “MYCN protein, dose response” value (MYCN [7])?
A: Its value is “little loss of MYCN protein even at doses 100 to 1000 times greater than their IC50 values for Aurora A”.

Q: And the “p-Histone H3 level” value (phospho-histone H3)?
A: The value was “blocked Histone H3 phosphorylation at 1 μM”.

Q: And the “phosphorylation of Histone H3 at S10, dose response” value (P-Histone H3 (S10))?
A: Its value is “abrogates phosphorylation of Histone H3 at S10”.
